Row | SMILES | melting point [°C]
1 | CCOc1ccc(C2=NN(c3ccc(C(=O)N4CCN(c5ccc(C(F)(F)F)cn5)CC4)cc3)C(=O)[C@@H]3CC=CC[C@H]23)cc1OCC | 121 to 123
2 | N#Cc1cccc2[nH]ccc12 | 115 to 116
3 | CN(C)Cc1ccc2cc(NC(=O)c3ccc(-c4ccccc4)cc3)ccc2n1 | 191 to 194
4 | CC(=O)Oc1c(C(C)(C)C)cc(C=O)cc1C(C)(C)C | 65.2 to 74.5
5 | CC(C)(C)NC(=O)NCC#CCNC(=O)Nc1nc2c(s1)-c1c(cnn1-c1ccccc1)CC2 | 196
6 | O=C(NCCN1CCC2(CC1)C(=O)NCN2c1ccccc1)c1cccs1 | 194
7 | CCC(CC)Nc1nc(Cc2cc(OC)c(OC)c(OC)c2)nc2sc(C#N)c(C)c12 | 127 to 129
8 | CC1(C)COC(=N)N1c1nc(-c2ccc(C#N)cc2)cs1 | 158 to 161
9 | O/N=C(/c1ccc(Cl)cc1)C1CC1 | 101 to 103
10 | Cc1noc(NS(=O)(=O)c2ccc(Cl)cc2)c1Br | 145 to 150
11 | Cn1c(=O)c(NS(C)(=O)=O)c(N2CCN(C(=O)c3cccs3)CC2)c2ccccc21 | 223
12 | C1CCC(C2CNCCNCCNCCNCCN2)CC1 (stereo not drawn) | 67 to 69.5
13 | O=C(O)c1cc2cccnc2nc1C(=O)O | 199 to 202
14 | CC1Sc2c(C(=O)O)c(=O)c3cc(F)c(N4CCNCC4)c(F)c3n21 (stereo not drawn) | 260
15 | COC(=O)c1cc(-c2ccc(OC)cc2)nn(CCC#N)c1=O | 141 to 143
16 | COCS(=O)(=O)c1ccc(C=C(C)c2ccc3c(c2)C(C)(C)CCC3(C)C)cc1 | 154 to 156
17 | CC(=O)NCC1CC(c2ccc(-n3ccc(C=O)c3)c(F)c2)=NO1 (single isomer, unassigned; (-)) | 155 to 156
18 | O=C1NCCC[C@@H]1NS(=O)(=O)c1ccccc1C(F)(F)F | 161 to 163
19 | CC(C)[C@H](NC(=O)OCc1ccccc1)C(=O)N[C@@H](Cc1ccccc1)[C@@H](O)[C@@H](O)[C@H](Cc1ccccc1)NC(=O)OC(C)(C)C | 178 to 182
20 | O=C(c1ccc(-c2ccc(=O)n(-c3ccc(F)cc3)n2)cc1)N1CCC[C@H]1CN1CCCC1 | 177
21 | O=C(N[C@@H](Cc1ccccc1)C(=O)COC(=O)N1CCC[C@H]1C(=O)O)c1ccccc1 | 55 to 65
22 | CC(C)(C)c1ccc(OCC(=O)NCc2ccc(NS(C)(=O)=O)c(O)c2)cc1 | 112

Row | SMILES | melting point [°C]
23 | CC1(C)C(=O)Nc2ccc(-c3cccc(C#N)c3)cc21 | 200 to 202
24 | CN(CCCNc1ncc(Cc2ccc(O)cc2)c(=O)[nH]1)c1ccccn1 | 109 to 111
25 | O=[N+]([O-])C1NC=CN1c1ccncc1 (stereo not drawn) | 234
26 | CC(C(=O)NC(C)(C#N)C(C)C)c1ccc(Br)cc1 (stereo not drawn) | 98 to 99
27 | CCSc1cc(C)nc(SCC)c1NC(=O)CCCCCSc1nc2ccccc2[nH]1 | 139 to 142
28 | O=Cc1ccc(-c2nnn[nH]2)cc1 | 180 to 182
29 | Cc1noc(NS(=O)(=O)c2ccsc2C(=O)Oc2ccc3c(c2)OCO3)c1Cl | 189 to 191
30 | COc1cc(C(=O)C#CCOCC=C(C)C)cc(OC)c1OC | 32
31 | S=C(Cc1ccc(Cl)cc1)N1CCOCC1 | 175 to 177
32 | Cc1ccc(C)c(OCCCC(C)(C)C(=O)Nc2cccc(-c3nnc(C)o3)c2)c1 | 90 to 92
33 | Cc1cccc(-c2nc(N)sc2-c2ccnc(-c3ccc(OCc4cn(C)cn4)cc3)c2)n1 | 226 to 228
34 | COc1cc(Cc2cnc(N)nc2N)cc(-c2ccc(CO)cc2)c1OC | 86
35 | Cn1cncc1C(O)(c1ccc(Cl)cc1)c1ccc2c(c1)c(-c1cccs1)cc(=O)n2C (stereo not drawn) | > 260
36 | COC(=O)/C=C(/C#Cc1ccccc1)c1ccccc1 | 73 to 75
37 | Cc1ccc(NC(=O)C(F)(F)F)cc1C(F)(F)F | 72 to 74
38 | COc1ccc(C(NCc2cccc(F)c2)c2cccc(Nc3c(N)c(=O)c3=O)c2)cc1 (stereo not drawn) | 209 to 212
39 | O=C(Nc1ccccc1S(=O)(=O)c1ccccc1)N[C@@H](Cc1ccc(NC(=O)c2c(Cl)cncc2Cl)cc1)C(=O)O | 214
40 | COc1cc(Nc2nccc(-c3cc(OC)c(OC)c(OC)c3)n2)cc(OC)c1OC | 187
41 | COC(=O)c1ccc(-c2ccc(-c3ccccc3)c(-c3ccc4c(c3)C(C)(C)CCC4(C)C)c2)c(O)c1 | 183 to 185
42 | COc1ccc(CC(C(O)CCC(C#N)(c2ccc(OC)c(OC)c2)C(C)C)[N+](=O)[O-])cc1OC (stereo not drawn) | 171 to 173
43 | CCCCCC(=O)OC(C)c1ccc(-c2ccc(C(=O)O)cc2)cc1 (single isomer, unassigned; (+)) | 133 to 135
44 | SC12CC3CC(CC(C3)C1)C2 | 101 to 103

Row | SMILES | melting point [°C]
45 | CCOC(=O)CNC(=O)[C@@H]1CS[C@H](c2ccccc2O)N1C(=O)CCSC(=O)c1ccccc1 | 134 to 135
46 | ON=Cc1c(C(F)(F)F)ccc(F)c1F | 111 to 112
47 | O=C(N[C@@H]1CCc2c(Br)ccc(N3CCNCC3)c2C1)c1ccc(N2CCOCC2)cc1 | 228 to 229
48 | O=S(=O)(c1ccc(F)cc1)c1c[nH]c2ccc(Br)cc12 | 163 to 164
49 | COC(=O)c1nc(CN(C)C)n(-c2ccc(Cl)cc2C(=O)c2ccccc2Cl)n1 | 131 to 134
50 | CCn1c(=O)c2[nH]c(/C=C/c3ccc(OC)c(C)c3)nc2n(CC)c1=O | > 270
51 | O=c1c2ccccc2ncn1CCN1CCC(c2c[nH]c3ccccc23)CC1 | 90
52 | CCCCCCCCCCCCOc1ccc(C2=C(O)CSC2=O)cc1 | 173 to 175
53 | CC(C)(C)OC(=O)N1CCn2c(c(C(N)=O)c(C#N)c2C2CCN(C(=O)OCc3ccccc3)CC2)C1 | 90
54 | OC1(Cc2ccccc2F)CCCCCC1 | 35 to 38
55 | CCOCC(=O)Nc1nc[nH]c1-c1n[nH]c(-c2ccc(-c3ccccc3)cc2)n1 | 280
56 | CCOC(=O)CCn1c(C(=O)NC(N)=S)cc2ccccc21 | 160 to 162
57 | C=CC[C@H](CC(=O)OC(C)(C)C)C(=O)N[C@H](C(=O)N[C@H](C)c1ccccc1)C(C)(C)C | 123 to 126
58 | CCCN(CCC)c1nsc(NC(=O)NC)c1C#N | 179 to 180
59 | O=S(=O)(c1ccc(F)cc1)c1cncc(OC2SCC(O)C(O)C2O)c1 (stereo not drawn) | 93 to 96
60 | Cc1ccc2nc(-c3cccnc3N)n(-c3ccc(CNC(=O)c4ccccc4)cc3)c2n1 | 203 to 205
61 | CN(C)C(=O)OCCOc1ccc(CC(NC(=O)OC(C)(C)C)C(O)CNCC(O)C(Cc2ccccc2)NC(=O)O)cc1 (stereo not drawn) | 128 to 132
62 | c1ccc2c(c1)OCc1c(-c3nc(C4CC4)no3)ncn1-2 | 169 to 173
63 | NS(=O)(=O)c1cnc(-c2cccs2)s1 | 134 to 136
64 | CCOC(=O)C1=C(C)NC(CF)=C(C(=O)OCC)C1c1cccc([N+](=O)[O-])c1 (stereo not drawn) | 139 to 141
65 | CCN(CC)C(C)CN1CCc2c(c(=O)oc3cc(C)c(Cl)cc23)C1 (stereo not drawn) | 78 to 80
66 | CC(=O)C(=NNc1cccc(C(F)(F)F)c1)C(C)=O | 108 to 109

Further lines, results first:

Row | melting point [°C] | SMILES
67 | 124 to 126 | O=C1C[C@@H](O)C[C@H](/C=C/c2c(Cl)cc(Cl)cc2Oc2ccccc2)O1 (relative stereo)
68 | 185 to 192 | COc1cc(NC(=O)C(C#N)=CNc2ccc(OC)c(OCCCCl)c2)c(Cl)cc1Cl
69 | 90 to 92 | CC(C)NCC(O)COC1c2ccccc2C(=O)N1c1ccc(Cl)cc1 (stereo not drawn)
70 | 137 to 138 | CSc1c(O)ccc2c1[nH]c1ccccc12
71 | 78 to 81 | O=C(c1ccccc1F)c1cc(Cl)ccc1I
72 | 138 to 140 | CS(=O)(=O)N(CCc1ccccc1)CC(O)(Cn1cncn1)c1ccc(Cl)cc1Cl (stereo not drawn)
73 | 188 | COc1ccc(Nc2nc(Nc3ccc(OC)c(Cl)c3)nc(OCC3CCCCC3)n2)cc1Cl
74 | 102 to 103 | CN1C[C@@H](C(=O)OC(C)(C)C)N(C(=O)OCc2ccccc2)C1=O
75 | 180 to 181 | O=C1C(Cl)=C(Cl)C(=O)N1c1ccc(Oc2ccccc2)cc1
76 | 135 to 137 | Cc1cc([N+](=O)[O-])c(C)c(Cl)c1Oc1ccc(Cl)c2ccccc12
77 | 110 | O=S(=O)(CC(O)(CCl)c1ccccc1)c1ccccc1 (stereo not drawn)
78 | 96 to 96.5 | CCC(=O)NC1=NN(c2ccccc2)C(C)C1 (stereo not drawn)
79 | 126 to 129 | O=C1NC(=O)C(Cc2ccc(OCCON=Cc3ccccc3)cc2)S1 (stereo not drawn)
80 | 190 to 192 | Cc1ncn(-c2ccc(N3C[C@H](CO)OC3=O)cc2F)n1
81 | 75 to 75.8 | COc1ccc(C(=O)C=Cc2ccccc2F)c(OC)c1OC
82 | 145 to 147 | O=C(Oc1ccccc1O)c1cc(Br)c(Cl)s1

Row | melting point [°C] | SMILES
83 | 258 to 259 | Cc1cccc(C(=O)O)c1Nc1ccccc1C(=O)O
84 | 270 to 271 | CN1CCN2C(=O)Nc3ccc(Cl)cc3C12c1ccccc1 (stereo not drawn)
85 | 255 | O=C1CCC(N2C(=O)c3ccccc3C2=S)C(=O)N1 (stereo not drawn)
86 | 158 to 161 | O=C1NN=C(c2cccc(Br)c2)CC1O (stereo not drawn)
87 | 164 | CC(C)C1NC(c2ccccc2)=NNC1=O (stereo not drawn)
88 | 188 to 189 | O=S(=O)(Cc1ccccc1)c1nc2ccc(O)cc2s1
89 | 138 to 146 | O=C(O)CCc1cc2cc(OC(F)(F)F)ccc2n1S(=O)(=O)c1ccccc1
90 | 140 to 143 | COc1ccc(C(=O)Nc2ccccc2)cc1NCc1ccc([N+](=O)[O-])c(O)c1
91 | 225 to 226 | O=C1c2ccccc2-c2c1c1cc3c(cc1c(=O)n2CCCNS(=O)(=O)c1ccccc1)OCO3
92 | 165 to 168 | O=C1NC(=O)C(c2cn3c4c(cccc24)C(O)CC3)=C1c1c[nH]c2ccccc12 (stereo not drawn)
93 | 64 to 67 | CC(C)(C)OC(=O)C1=Cc2cc(OCc3ccccc3)ccc2OC1
94 | 159 to 163 | COc1ccc2c(c1)C(=O)N(c1ccc3c(c1)NCCN3)C2
95 | 183 to 184 | COc1ccc(S(=O)(=O)Nc2ccccc2NC(=O)c2ccccc2)cc1OC
96 | 182 to 185 | O=C1CN(Cc2ccccc2)c2cc(-c3cccc(Cl)c3)ccc2N1
97 | 237 to 239 | CC(=O)Nc1ccc(Cn2c3c(c4cc(F)cc(F)c42)CCCC3CC(=O)O)cc1 (stereo not drawn)
98 | 113 to 114 | COCCOc1ccc(/C=C/COC(=O)NS(=O)(=O)NCCc2ccccc2)c(Oc2ncc(C(F)(F)F)cc2Cl)c1
